Experimental data as given in patent US11566168B1, “Biocide blend for treating wellbores” (Halliburton Energy Services, Inc., priority 2021, dated 2023).

Key:
[1] = test system: acid producing bacteria (APB); assay: Elevated temperature study of biocides, kill testing of APB; assay type: cell-based, indigenous acid producing bacteria; conditions: for biocidal effectiveness against APB (FIG. 1): biocide-dosed water at 93° C. for 1 week, then 5 days at 32° C. with bacteria
Protocol: (§1) To facilitate a better understanding of the various embodiments, the following examples are given. […] Kill testing was performed at 32° C. (89.6° F.) at various contact times as follows. Bacterial populations were augmented prior to testing by culturing indigenous acid producing bacteria (APB) and sulfate reducing bacteria (SRB) in sample waters before starting kill studies. Prior to testing, cultures of APB and SRB from water samples were grown in culture medium. APB were grown in anaerobic phenol red dextrose medium (PRD). SRB were grown in American Petroleum Institute (API) medium without iron. The total dissolved solids (TDS) of SRB and APB media were selected to simulate wellbore fluids for some of the testing. Immediately preceding biocide testing, cultures were harvested by centrifugation. Cell pellets from mature bacteria were resuspended in sample water. The sample water, augmented with bacteria, was dispensed into 60 mL glass bottles and the appropriate amount of biocide was added. At the stated contact time of either 4 hours or 24 hours, biocide samples were taken for quantification. A standard serial dilution method into culture media was used to test biocide efficacy. Controls were serial diluted to theoretical extinction, while biocide-dosed samples were carried through 6 ten-fold dilutions as represented on the Y-axis of the figures. APB were quantitated by serial dilution into PRD medium. SRB were quantified by serial dilution into modified Postgate's medium B (MBP). Culture media were incubated at 32° C. (89.6° F.) and checked periodically. A change from red to yellow indicated a positive APB bottle. Formation of a black precipitate indicated a positive SRB bottle.
(§2) Elevated temperature studies of the biocides as shown in FIGS. 1 and 2 were conducted by adding 2 times the final biocide test concentration to 100 mL of sample water. The biocide-dosed sample was placed at 93° C. (199.4° F.) for 1 week or 2 weeks, FIG. 1 and FIG. 2, respectively. Following exposure to the elevated temperature, the heat-exposed biocide-dosed material was combined with an equal amount of sample water augmented with APB or SRB bacteria. The sample was then incubated for 5 days at 32° C. (89.6° F.). Following incubation, the sample material was serial diluted into PRD and MPB media for APB and SRB quantitation as discussed above. The biocides for FIGS. 1 and 2 are formaldehyde-releasing biocides. Tris(hydroxymethyl)nitromethane (“THNM”) and 4,4-dimethyloxazolidine (“DMO”) were obtained from DuPont®. Triazine was 1,3,5-triazine that is widely available commercially. Paraformaldehyde and […] (ratio 3:2) (“MBO”) was obtained from Vink chemicals. The formaldehyde-releasing biocides were in a concentration of 100, 150, 500, or 1,000 parts per million (“ppm”).

[2] = test system: sulfate reducing bacteria (SRB); assay: Elevated temperature study of biocides, kill testing of SRB; assay type: cell-based, indigenous sulfate reducing bacteria; conditions: for biocidal effectiveness against SRB (FIG. 1): biocide-dosed water at 93° C. for 1 week, then 5 days at 32° C. with bacteria
Protocol: as §1, §2

[3] = Properties that a biocide or blend possesses (Table 1)
Description: Some of the desirable properties can include maintaining biocidal activity in fluids having a high salinity or a high concentration of total dissolved solids, thermal stability, maintaining biocidal activity in the presence of ammonia or primary amines, quick kill, maintaining biocidal activity for extended periods of time—also known as persistence, and no interaction between the biocide and other additives having a negative charge (anions) within a treatment fluid.
The second property can be different. […] It is to be understood that unlike a triazine compound, glutaraldehyde is not a formaldehyde-releasing biocide.

[4] = at comparable or lower concentrations, 93° C. for 1 week
[5] = triazine at 100 ppm, 93° C. for 1 week

Row | Compound | biocidal effectiveness against APB (FIG. 1) [1] | biocidal effectiveness against SRB (FIG. 1) [2] | performance compared with the other formaldehyde-releasing biocides, APB (FIG. 2) ([1]; 150 ppm, 93° C. for 2 weeks) | effectiveness compared with the other formaldehyde-releasing biocides, APB (FIG. 1) [1, 4] | effectiveness compared with MBO, APB (FIG. 1) [1, 5] | performance compared with the other formaldehyde-releasing biocides, SRB (FIG. 2) ([2]; 150 ppm, 93° C. for 2 weeks) | effectiveness compared with the other formaldehyde-releasing biocides, SRB (FIG. 1) [2, 4] | effectiveness compared with MBO, SRB (FIG. 1) [2, 5] | Activity in ammonia [3] | High salinity activity [3] | No interaction with anions [3] | Quick kill [3] | Thermal stability [3]
1 | CC1(C)COCN1 [DMO, 4,4-dimethyloxazolidine, reference compound] | effective | not SRB |  |  |  |  |  |  |  |  |  |  | 
2 | 1,3,5-triazine | effective | very effective | performed better | as effective or more effective | as effective as MBO at 1,000 ppm | performed better | as effective or more effective | as effective as MBO at 1,000 ppm | Yes | Yes | Yes | No | Yes
3 | O=CCCCC=O [Glutaraldehyde, glutaraldehyde, reference compound] |  |  |  |  |  |  |  |  | No | Yes | Yes | Yes | No
